Reference: ChEMBL document CHEMBL4229536, “In vitro and in vivo pharmacokinetic and pharmacodynamic study of MBRI-001, a deuterium-substituted plinabulin derivative as a potent anti-cancer agent” (Bioorg Med Chem, 2018)

How the values were obtained:
[1] = Stability in rat plasma at 1 uM after 10 mins by LC-MS/MS analysis; type: ADME, cell-free; conditions: read-out: Stability
[2] = Stability in rat plasma at 1 uM after 40 mins by LC-MS/MS analysis; type: ADME, cell-free; conditions: read-out: Stability
[3] = Stability in rat plasma at 1 uM after 90 mins by LC-MS/MS analysis; type: ADME, cell-free; conditions: read-out: Stability
[4] = Stability in rat liver microsomes at 50 uM after 10 mins in presence of NADPH by LC-MS/MS analysis; type: ADME, microsome; conditions: liver microsomes, read-out: Stability
[5] = Stability in rat liver microsomes at 50 uM after 40 mins in presence of NADPH by LC-MS/MS analysis; type: ADME, microsome; conditions: read-out: Stability
[6] = Stability in rat liver microsomes at 50 uM after 60 mins in presence of NADPH by LC-MS/MS analysis; type: ADME, microsome; conditions: read-out: Stability
[7] = Stability in rat liver microsomes at 50 uM after 150 mins in presence of NADPH by LC-MS/MS analysis; type: ADME, microsome; conditions: read-out: Stability
[8] = Stability in rat liver microsomes at 50 uM after 210 mins in presence of NADPH by LC-MS/MS analysis; type: ADME, microsome; conditions: liver microsomes, read-out: Stability
[9] = Half life in rat liver microsomes at 50 uM in presence of NADPH by LC-MS/MS analysis; type: ADME, microsome
[10] = Clearance in rat liver microsomes at 50 uM in presence of NADPH by LC-MS/MS analysis; type: ADME, microsome; conditions: read-out: CLH
[11] = Protein binding in Sprague-Dawley rat plasma at 2 uM after 4 hrs by LC-MS/MS analysis; type: ADME, cell-free; conditions: read-out: PPB (converted)
[12] = MRTlast in Wistar rat at 4 mg/kg, iv; type: ADME, organism-based; conditions: in vivo
[13] = AUClast in Wistar rat at 8 mg/kg, iv; type: ADME, organism-based; parameters: dose 8 mg/kg, time 0 - last, route intravenous; conditions: in vivo
Rattus norvegicus = assay: AUC (0 to infinity) in Wistar rat at 8 mg/kg, iv; type: ADME, organism-based; parameters: dose 8 mg/kg, route intravenous, time infinity; conditions: in vivo
[14] = Apparent volume of distribution in Wistar rat at 8 mg/kg, iv; type: ADME, organism-based; conditions: in vivo, read-out: Vz
[15] = MRTlast in Wistar rat at 8 mg/kg, iv; type: ADME, organism-based; conditions: in vivo
[16] = Drug uptake in Wistar rat spleen at 6 mg/kg, iv measured after 0.5 hrs; type: ADME, organism-based; conditions: in vivo
[17] = Drug uptake in Wistar rat liver at 6 mg/kg, iv measured after 0.5 hrs; type: ADME, organism-based; conditions: in vivo
[18] = Drug uptake in Wistar rat kidney at 6 mg/kg, iv measured after 0.5 hrs; type: ADME, organism-based; conditions: in vivo
[19] = Drug uptake in Wistar rat lungs at 6 mg/kg, iv measured after 0.5 hrs; type: ADME, organism-based, Lung; conditions: in vivo
[20] = Drug uptake in Wistar rat brain at 6 mg/kg, iv measured after 0.5 hrs; type: ADME, organism-based; conditions: in vivo
[21] = Drug uptake in Wistar rat pancreas at 6 mg/kg, iv measured after 1 hr; type: ADME, organism-based; conditions: in vivo
[22] = Drug uptake in Wistar rat spleen at 6 mg/kg, iv measured after 1 hr; type: ADME, organism-based; conditions: in vivo
[23] = Drug uptake in Wistar rat liver at 6 mg/kg, iv measured after 1 hr; type: ADME, organism-based; conditions: in vivo
[24] = Drug uptake in Wistar rat spleen at 6 mg/kg, iv measured after 4 hrs; type: ADME, organism-based; conditions: in vivo
[25] = Drug uptake in Wistar rat heart at 6 mg/kg, iv measured after 4 hrs; type: ADME, organism-based; conditions: in vivo
[26] = Drug uptake in Wistar rat spleen at 6 mg/kg, iv measured after 8 hrs; type: ADME, organism-based; conditions: in vivo
[27] = Drug uptake in Wistar rat liver at 6 mg/kg, iv measured after 8 hrs; type: ADME, organism-based; conditions: in vivo
[28] = Drug uptake in Wistar rat kidney at 6 mg/kg, iv measured after 8 hrs; type: ADME, organism-based; conditions: in vivo
[29] = Drug uptake in Wistar rat lungs at 6 mg/kg, iv measured after 8 hrs; type: ADME, organism-based, Lung; conditions: in vivo
[30] = Drug uptake in Wistar rat brain at 6 mg/kg, iv measured after 8 hrs; type: ADME, organism-based; conditions: in vivo
[31] = Drug uptake in Wistar rat pancreas at 6 mg/kg, iv measured after 12 hrs; type: ADME, organism-based; conditions: in vivo
[32] = Drug uptake in Wistar rat spleen at 6 mg/kg, iv measured after 12 hrs; type: ADME, organism-based; conditions: in vivo
[33] = Drug uptake in Wistar rat lungs at 6 mg/kg, iv measured after 12 hrs; type: ADME, organism-based, Lung; conditions: in vivo
[34] = Drug uptake in Wistar rat heart at 6 mg/kg, iv measured after 12 hrs; type: ADME, organism-based; conditions: in vivo
[35] = Drug excretion in Wistar rat feces at 4 mg/kg, iv measured after 2 hrs; type: ADME, organism-based; conditions: faeces, read-out: Drug excretion
[36] = Drug excretion in Wistar rat feces at 4 mg/kg, iv measured after 24 hrs; type: ADME, organism-based; conditions: faeces, read-out: Drug excretion
[37] = Drug excretion in Wistar rat feces at 4 mg/kg, iv measured after 48 hrs; type: ADME, organism-based; conditions: faeces, read-out: Drug excretion
[38] = Drug excretion in Wistar rat feces at 4 mg/kg, iv measured after 72 hrs; type: ADME, organism-based; conditions: faeces, read-out: Drug excretion
[39] = Drug excretion in Wistar rat urine at 4 mg/kg, iv measured after 2 hrs; type: ADME, organism-based; conditions: read-out: Drug excretion
[40] = Drug excretion in Wistar rat urine at 4 mg/kg, iv measured after 48 hrs; type: ADME, organism-based; conditions: read-out: Drug excretion
[41] = Drug excretion in Wistar rat urine at 4 mg/kg, iv measured after 72 hrs; type: ADME, organism-based; conditions: read-out: Drug excretion
Mus musculus [42] = assay: Toxicity in Balb/c mouse assessed as mortality at 10 to 15 mg/kg, iv administered three times in a day every 2 days for 15 consecutive days; type: organism-based; conditions: in vivo, 48 h
Mus musculus [43] = assay: Toxicity in nude mouse xenografted with human NCI-H460 cells assessed as body weight at 3 mg/kg, iv administered once in every 2 days for 14 consecutive days (reference value: 20.6 +/- 1.5 g); type: organism-based; conditions: in vivo, 48 h
Mus musculus [44] = assay: Toxicity in nude mouse xenografted with human NCI-H460 cells assessed as body weight at 9 mg/kg, iv administered once in every 2 days for 14 consecutive days (reference value: 20.6 +/- 1.5 g); type: organism-based; conditions: in vivo, 48 h
NCI-H460 [45] = assay: Antitumor activity against human NCI-H460 cells xenografted in nude mouse assessed as inhibition of tumor weight at 6 mg/kg, iv administered once in every 2 days for 14 consecutive days relative to control; type: functional; conditions: 48 h
NCI-H460 [46] = assay: Antitumor activity against human NCI-H460 cells xenografted in nude mouse assessed as inhibition of tumor weight at 9 mg/kg, iv administered once in every 2 days for 14 consecutive days relative to control; type: functional; conditions: 48 h
NCI-H460 [47] = assay: Antitumor activity against human NCI-H460 cells xenografted in nude mouse assessed as inhibition of tumor weight at 6 mg/kg, iv administered once in every 2 days for 14 consecutive days cotreated with 50 mg/kg gefitinib once daily for 14 consecutive days relative to control; type: functional
NCI-H460 [48] = assay: Antitumor activity against human NCI-H460 cells xenografted in nude mouse assessed as inhibition of tumor volume at 6 mg/kg, iv administered once in every 2 days for 14 consecutive days relative to control; type: functional; conditions: 48 h
NCI-H460 [49] = assay: Antitumor activity against human NCI-H460 cells xenografted in nude mouse assessed as inhibition of tumor volume at 9 mg/kg, iv administered once in every 2 days for 14 consecutive days relative to control; type: functional; conditions: 48 h
NCI-H460 [50] = assay: Antitumor activity against human NCI-H460 cells xenografted in nude mouse assessed as inhibition of tumor volume at 3 mg/kg, iv administered once in every 2 days for 14 consecutive days cotreated with 25 mg/kg gefitinib once daily for 14 consecutive days relative to control; type: functional

Structure (SMILES): [2H]/C(c1nc[nH]c1C(C)(C)C)=c1/[nH]c(=O)/c(=C/c2ccccc2)[nH]c1=O
- remaining at 10 min, 1 µM [1]: 96.8%
- remaining at 40 min, 1 µM [2]: 95.5%
- remaining at 1.5 h, 1 µM [3]: 99.3%
- remaining at 10 min, 50 µM [4]: 80.6%
- remaining at 40 min, 50 µM [5]: 56.5%
- remaining at 1 h, 50 µM [6]: 47.1%
- remaining at 2.5 h, 50 µM [7]: 32.9%
- remaining at 3.5 h, 50 µM [8]: 31.5%
- t1/2 [9]: 1.415 h
- microsomal CLint at 50 µM [10]: 16.3 µL/min/mg
- fraction unbound at 4 h, 2 µM [11]: 0.042
- MRT last [12]: 1.76 h
- AUC(0-t) [13]: 5780 ng·h/mL
- AUC (Rattus norvegicus): 5808.24 ng·h/mL
- Vd [14]: 16.2 L/kg
- MRT last [15]: 0.96 h
- Drug uptake [16]: 4808.8 ng/mL/g
- Drug uptake [17]: 8281 ng/mL/g
- Drug uptake [18]: 7423.8 ng/mL/g
- Drug uptake [19]: 13471.1 ng/mL/g
- Drug uptake [20]: 1756.2 ng/mL/g
- Drug uptake [21]: 4538.9 ng/mL/g
- Drug uptake [22]: 7146.9 ng/mL/g
- Drug uptake [23]: 8791.2 ng/mL/g
- Drug uptake [24]: 1519.6 ng/mL/g
- Drug uptake [25]: 567.3 ng/mL/g
- Drug uptake [26]: 773.1 ng/mL/g
- Drug uptake [27]: 1684.3 ng/mL/g
- Drug uptake [28]: 636.5 ng/mL/g
- Drug uptake [29]: 41048.8 ng/mL/g
- Drug uptake [30]: 144.8 ng/mL/g
- Drug uptake [31]: 68.2 ng/mL/g
- Drug uptake [32]: 287.3 ng/mL/g
- Drug uptake [33]: 2023.8 ng/mL/g
- Drug uptake [34]: 54.7 ng/mL/g
- dose excreted at 2 h [35]: 0%
- dose excreted at 24 h [36]: 5.65%
- dose excreted at 48 h [37]: 6.1%
- dose excreted at 72 h [38]: 6.23%
- dose excreted at 2 h [39]: 0.05%
- dose excreted at 48 h [40]: 0.26%
- dose excreted at 72 h [41]: 0.5%
- Activity (Mus musculus [42]): Non-Toxic
- Activity (Mus musculus [43]): 20.5 g
- Activity (Mus musculus [44]): 19.9 g
- inhibition in vivo at 6 mg/kg (NCI-H460 [45]): 49.5%
- inhibition in vivo at 9 mg/kg (NCI-H460 [46]): 58.7%
- inhibition (INH) (NCI-H460 [47]): 60.5%
- inhibition in vivo at 6 mg/kg (NCI-H460 [48]): 56.9%
- inhibition in vivo at 9 mg/kg (NCI-H460 [49]): 68.2%
- inhibition (INH) (NCI-H460 [50]): 57.6%
